From patent publication US11524968B2, “Heterocyclic compound as a protein kinase inhibitor” (HK inno.N Corporation, priority 2017, dated 2022)

The compounds below were run against JAK1 (Homo sapiens (Human), UniProt P23458) (assay: Analysis of JAK1 activity inhibition ability (ADP-Glo Kinase Assay)). Details: not given.
Format: biochemical
Summary of the method: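 ADP-Glo luminescence read-out of ADP production, with IC50 taken as the concentration halving JAK1 activity relative to control. Enzyme was incubated 40 min at 30 °C with compound, IRS-itide (40 ng/mL) and ATP (250 uM), concentrations as prepared in pH 7.5 Tris-HCl/MgCl2/BSA/DTT buffer.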

Chain of JAK1 (P23458 whole entry): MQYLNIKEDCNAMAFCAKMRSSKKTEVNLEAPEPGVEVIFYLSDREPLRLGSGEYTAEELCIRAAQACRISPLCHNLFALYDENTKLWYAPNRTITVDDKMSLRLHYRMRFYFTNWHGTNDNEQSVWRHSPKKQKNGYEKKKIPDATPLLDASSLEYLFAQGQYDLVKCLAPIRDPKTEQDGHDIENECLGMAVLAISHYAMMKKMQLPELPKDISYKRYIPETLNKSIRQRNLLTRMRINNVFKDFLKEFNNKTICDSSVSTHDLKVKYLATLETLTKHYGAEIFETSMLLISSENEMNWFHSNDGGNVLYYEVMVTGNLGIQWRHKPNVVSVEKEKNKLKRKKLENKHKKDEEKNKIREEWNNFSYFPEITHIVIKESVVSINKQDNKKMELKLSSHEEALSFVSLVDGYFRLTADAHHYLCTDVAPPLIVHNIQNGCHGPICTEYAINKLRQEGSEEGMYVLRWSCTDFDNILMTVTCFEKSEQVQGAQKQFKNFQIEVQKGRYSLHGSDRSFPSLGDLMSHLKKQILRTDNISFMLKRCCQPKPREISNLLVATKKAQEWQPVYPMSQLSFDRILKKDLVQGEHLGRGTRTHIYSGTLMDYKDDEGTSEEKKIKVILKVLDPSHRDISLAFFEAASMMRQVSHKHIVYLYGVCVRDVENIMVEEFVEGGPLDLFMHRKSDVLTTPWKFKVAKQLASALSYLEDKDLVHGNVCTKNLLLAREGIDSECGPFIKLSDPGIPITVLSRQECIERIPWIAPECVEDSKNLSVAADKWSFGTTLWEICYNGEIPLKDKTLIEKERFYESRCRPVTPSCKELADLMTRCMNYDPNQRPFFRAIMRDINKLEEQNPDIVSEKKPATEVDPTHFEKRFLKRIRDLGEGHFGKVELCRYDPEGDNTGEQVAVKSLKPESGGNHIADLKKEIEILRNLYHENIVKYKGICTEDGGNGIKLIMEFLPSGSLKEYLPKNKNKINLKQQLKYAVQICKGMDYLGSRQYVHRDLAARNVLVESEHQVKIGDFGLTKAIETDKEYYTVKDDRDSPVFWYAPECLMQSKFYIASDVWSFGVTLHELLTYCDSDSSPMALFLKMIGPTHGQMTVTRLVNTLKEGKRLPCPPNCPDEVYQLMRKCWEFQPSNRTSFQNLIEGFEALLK

Row | SMILES | IC50 [nM]
1 | O=C1CCN(C(=O)Cc2ccc(-c3cc(NC(=O)C4CC4)nc4[nH]ccc34)cc2)CC1 [Example 549, N-(4-(4-(2-oxo-2-(4-oxopiperidin-1-yl)ethyl)phenyl)-1H-pyrrolo[2,3-b]pyridin-6-yl)cyclopropanecarboxamide] | 20 to 200

Same assay, conditions: JAK1 enzyme, ADP-Glo luminescence, ATP 250 uM, IRS-itide substrate, 30° C. 40 minutes; read-out: IC50

Row | SMILES | IC50 [nM]
2 | CSc1ccc(S(=O)(=O)Nc2ccc(-c3cc(NC(=O)C4CC4)nc4[nH]ccc34)cc2)cc1 [Example 28, N-(4-(4-((4-(methylthio)phenyl)sulfonamido)phenyl)-1H-pyrrolo[2,3-b]pyridin-6-yl)cyclopropanecarboxamide] | 20 to 200
3 | O=C(Nc1cc(-c2ccc(CNC(=O)N3CCS(=O)(=O)CC3)cc2)c2cc[nH]c2n1)C1CC1 [Example 580, N-(4-(6-(cyclopropanecarboxamido)-1H-pyrrolo[2,3-b]pyridin-4-yl)benzyl)thiomorpholine-4-carboxamide 1,1-dioxide] | 20 to 200
4 | N#CCC(=O)NC1CCN(c2cc(NC(=O)C3CC3)nc3[nH]ccc23)CC1 [Example 675, N-(4-(4-(2-cyanoacetamido)piperidin-1-yl)-1H-pyrrolo[2,3-b]pyridin-6-yl)cyclopropanecarboxamide] | > 200
5 | N#CCCC(=O)N1C2C=C(c3cc(NC(=O)C4CC4)nc4[nH]ccc34)CC1CC2 (stereo not drawn) [Example 255, N-(4-(8-(3-cyanopropanoyl)-8-azabicyclo[3.2.1]oct-2-en-3-yl)-1H-pyrrolo[2,3-b]pyridin-6-yl)cyclopropanecarboxamide] | < 20
6 | N#CCC(=O)Nc1ccc(-c2cc(NC(=O)C3CC3)nc3[nH]ccc23)cc1 [Example 239, N-(4-(4-(2-cyanoacetamido)phenyl)-1H-pyrrolo[2,3-b]pyridine-6-yl)cyclopropanecarboxamide] | 20 to 200
7 | CCCS(=O)(=O)Nc1cc(F)c(-c2cc(NC(=O)C3CC3)nc3[nH]ccc23)cc1F [Example 84, N-(4-(2,5-difluoro-4-(propylsulfonamido)phenyl)-1H-pyrrolo[2,3-b]pyridin-6-yl)cyclopropanecarboxamide] | < 20
8 | O=C(Nc1cc(-c2ccc(CNC3CCS(=O)(=O)CC3)cc2)c2cc[nH]c2n1)C1CC1 [Example 596, N-(4-(4-(((1,1-dioxidotetrahydro-2H-thiopyran-4-yl)amino)methyl)phenyl)-1H-pyrrolo[2,3-b]pyridin-6-yl)cyclopropanecarboxamide] | 20 to 200
9 | N#Cc1ccc(S(=O)(=O)NC2CC=C(c3cc(NC(=O)C4CC4)nc4[nH]ccc34)CC2)cc1 (stereo not drawn) [Example 164, N-(4-(4-((4-cyanophenyl)sulfonamido)cyclohex-1-en-1-yl)-1H-pyrrolo[2,3-b]pyridin-6-yl)cyclopropanecarboxamide] | < 20
10 | CC1CN(C(=O)c2ccc(Cl)nc2)CC=C1c1cc(NC(=O)C2CC2)nc2[nH]ccc12 (stereo not drawn) [Example 335, N-(4-(1-(6-chloronicotinoyl)-3-methyl-1,2,3,6-tetrahydropyridin-4-yl)-1H-pyrrolo[2,3-b]pyridin-6-yl)cyclopropanecarboxamide] | 20 to 200
11 | CCCS(=O)(=O)Oc1ccc(-c2cc(NC(=O)C3CC3)nc3[nH]ccc23)cc1 [Example 631, 4-(6-(cyclopropanecarboxamido)-1H-pyrrolo[2,3-b]pyridin-4-yl)phenyl propane-1-sulfonate] | 20 to 200
12 | C[C@@H]1CN(C(=O)c2ccnc(F)c2)CC=C1c1cc(NC(=O)C2CC2)nc2[nH]ccc12 [Example 395, (S)—N-(4-(1-(2-fluoroisonicotinoyl)-3-methyl-1,2,3,6-tetrahydropyridin-4-yl)-1H-pyrrolo[2,3-b]pyridin-6-yl)cyclopropanecarboxamide] | < 20
13 | O=C(Nc1cc(-c2ccc(NS(=O)(=O)c3ccc(Br)cc3)cc2)c2cc[nH]c2n1)C1CC1 [Example 20, N-(4-(4-((4-bromophenyl)sulfonamido)phenyl)-1H-pyrrolo[2,3-b]pyridin-6-yl)cyclopropanecarboxamide] | 20 to 200
14 | CC1CN(C(=O)CCl)CC=C1c1cc(NC(=O)C2CC2)nc2[nH]ccc12 (stereo not drawn) [Example 348, N-(4-(1-(2-chloroacetyl)-3-methyl-1,2,3,6-tetrahydropyridin-4-yl)-1H-pyrrolo[2,3-b]pyridin-6-yl)cyclopropanecarboxamide] | 20 to 200
15 | N#CCCCn1ccc2c(-c3ccc(OS(=O)(=O)CCCC#N)cc3)cc(NC(=O)C3CC3)nc21 [Example 640, 4-(1-(3-cyanopropyl)-6-(cyclopropanecarboxamido)-1H-pyrrolo[2,3-b]pyridin-4-yl)phenyl 3-cyanopropane-1-sulfonate] | > 200
16 | N#CC1(CC(=O)N2C3CCC2CN(c2nc(NC(=O)C4CC4)nc4[nH]ccc24)C3)CC1 [Example 689, N-(4-(8-(2-(1-cyanocyclopropyl)acetyl)-3,8-diazabicyclo[3.2.1]octan-3-yl)-7H-pyrrolo[2,3-d]pyrimidin-2-yl)cyclopropanecarboxamide] | 20 to 200
17 | O=C(Nc1nc(-c2ccc(NS(=O)(=O)C3CCS(=O)(=O)C3)cc2)c2cc[nH]c2n1)C1CC1 (stereo not drawn) [Example 196, N-(4-(4-((1,1-dioxidotetrahydrothiophene)-3-sulfonamido)phenyl)-7H-pyrrolo[2,3-d]pyrimidin-2-yl)cyclopropanecarboxamide] | 20 to 200
18 | CC1CN(C(=O)c2cc(Cl)nc(Cl)c2)CC=C1c1cc(NC(=O)C2CC2)nc2[nH]ccc12 (stereo not drawn) [Example 372, N-(4-(1-(2,6-dichloroisonicotinoyl)-3-methyl-1,2,3,6-tetrahydropyridin-4-yl)-1H-pyrrolo[2,3-b]pyridin-6-yl)cyclopropanecarboxamide] | 20 to 200
19 | CS(=O)(=O)N1CCN(Cc2ccc(-c3cc(NC(=O)C4CC4)nc4[nH]ccc34)cc2)CC1 [Example 587, N-(4-(4-((4-(methylsulfonyl)piperazin-1-yl)methyl)phenyl)-1H-pyrrolo[2,3-b]pyridin-6-yl)cyclopropanecarboxamide] | < 20
20 | O=C(Nc1nc(-c2ccc(NCCCO)cc2)c2cc[nH]c2n1)C1CC1 [Example 476, N-(4-(4-((3-hydroxypropyl)amino)phenyl)-7H-pyrrolo[2,3-d]pyrimidin-2-yl)cyclopropanecarboxamide] | > 200
21 | CC1CN(C(=O)CC#N)CC=C1c1cc(NC(=O)C2CC2)nc2[nH]ccc12 (stereo not drawn) [Example 283, N-(4-(1-(2-cyanoacetyl)-3-methyl-1,2,3,6-tetrahydropyridin-4-yl)-1H-pyrrolo[2,3-b]pyridin-6-yl)cyclopropanecarboxamide] | < 20
22 | CCS(=O)(=O)Nc1ccc(-c2cc(NC(=O)C3CC3)nc3[nH]cnc23)cc1 [Example 207, N-(7-(4-(ethylsulfonamido)phenyl)-3H-imidazo[4,5-b]pyridin-5-yl)cyclopropanecarboxamide] | > 200
23 | Cc1nc(C)c(C(=O)N2CC=C(c3cc(NC(=O)C4CC4)nc4[nH]ccc34)C(C)C2)s1 (stereo not drawn) [Example 307, N-(4-(1-(2,4-dimethylthiazole-5-carbonyl)-3-methyl-1,2,3,6-tetrahydropyridin-4-yl)-1H-pyrrolo[2,3-b]pyridin-6-yl)cyclopropanecarboxamide] | > 200
24 | N#CCC(=O)N1CC=C(c2cc(NC(=O)C3CC3)nc3[nH]ccc23)C2(CC2)C1 [Example 303, N-(4-(5-(2-cyanoacetyl)-5-azaspiro[2.5]oct-7-en-8-yl)-1H-pyrrolo[2,3-b]pyridin-6-yl)cyclopropanecarboxamide] | < 20
